Values quoted from earlier work in patent US20050106263A1, “Green tea, multivitamin, mineral and herb based hair and male facial skin formulas” (priority 2003, published 2005).

Columns and labels:
[1] = in vivo
hair loss = conditions: comparison drug, general statement

SMILES	oral bioavailability [1]	effect on front hairline (hair loss)	persistence of effect after use is stopped (hair loss)
O=C(O[C@@H]1Cc2c(O)cc(O)cc2O[C@@H]1c1cc(O)c(O)c(O)c1)c1cc(O)c(O)c(O)c1 [EGCG, epigallocatchin-3-gallate]	low oral bioavailability	–	–
Nc1cc(N2CCCCC2)nc(N)[n+]1[O-] [Rogaine]	–	does not work well on the front hairline	must be continually used or its effects will not only cease but will reverse
